From EP0485217A2, “Hydantoin derivatives, and their use in preventing and treating diabetic complications and circulatory organ diseases” (priority 1990, dated 1992) come the findings set out here.

Test [1] has as its system platelet aggregation. Put plainly: Ex-vivo inhibition of platelet aggregation after intravenous administration. It counts as in vivo, rat. The following applies: inhibition relative to control, blood 5 minutes after dosing; for Collagen (10 μM): inducer collagen. On the procedure:
The thus treated blood was centrifuged at 1500 rpm for 5 minutes to obtain a supernatant fluid in the form of PRP. The residues were then again centrifuged at 4°C and 3000 rpm for 10 minutes to obtain a supernatant fluid in the form of PPP. […] of PRP were put in a PRP cuvette having a stirrer bar with the transmittance set at 0%, while 300 µl of PPP were put in a PPP cuvette with the transmittance set at 100%. After 1-minute preincubation, 20 µl of an aggregation inducer (collagen or ADP) were introduced.
A control group, to which dimethylacetamide and tartaric acid in a ratio of 2/3 were given in a quantity of 1 ml/kg, was treated as with the test group. Upon the addition of the aggregation inducer, a maximum transmittance change was read to find a platelet aggregation change in %.

Test [2] has as its system platelet aggregation. The test is described as follows: In-vitro inhibition of platelet aggregation in platelet rich plasma. It counts as cell-based, rat. The method, then:
Then, the residues were centrifuged to obtain a supernatant fluid in the form of platelet poor plasma (PPP for short). For measurement, an amount of PRP collected from two to four animals was pooled. The platelet aggregation test was carried out with NBS HEMA TRACER (Model PAT-60 made by Niko Bioscience Co., Ltd.). […] After 1-minute preincubation, 3 µl of the test compound were added and, one minute later, 30 µl of an aggregation inducer (collagen or ADP) were introduced. Added to a control group was the test compound together with 3 µl of dimethyl sulfoxide. Upon the addition of the aggregation inducer, a maximum transmittance change was read to find a platelet aggregation change in %.

The test system of a further test is left atrium. The test is described as follows: Extracted heart, left atrium sample (systole force, electrically stimulated). On the set-up: species or system Hartley guinea pigs. The following applies: Cavia porcellus, read-out: Systole Forces. The text has this:
(§1) Stunned by receving a blow on the heads, Hartley guinea pigs (weighing 300-400 g) were fixed on the back regions to extract their hearts. […] This vessel was previously filled with a Krebs-Henseleit solution and the above gaseous mixture continued to be supplied thereto during preparing the sample.
(§2) In order to prepare the sample, the right and left atria were cut out of the ventricular muscule along the atriventricular sulcus from the center of both the right and left auricles.
While a platinum bipolar electrode attached to the above-mentioned micro wire clamp was in contact with the atrium, stimuli were given to it by 1-Hz, 2-msec. and 10-V rectangular waves derived through an electrical stimulator and an isolator to record the movement of said atrium with an FD pickup connected with it through silk thread.

For a further test, the system named is right atrium. Put plainly: Extracted heart, right atrium sample (heart rate). The following applies: Cavia porcellus, read-out: Heart Rates. On the set-up: species or system Hartley guinea pigs.
From the text: as §1, §2
The contraction of the sample was recorded on a recorder through an FD pickup simultaneously with counting and recording the beat with an instantaneous cardiograph unit.

Test [3] relates to Extracted Guinea Pigs' Aortae. Put plainly: Relaxation of extracted thoracic aorta contracted by KCl or NE. The following applies: Cavia porcellus. The arrangement: species or system Hartley guinea pigs. The text has this: Stunned by receiving a blow on the head, Hartley guinea pigs (weighing 300-500 g) were fixed at the back regions, and the thoracic aortae were then extracted to prepare helical samples, each ca. 2 mm in width and ca. 25 mm in length. Each sample was suspended in a Magnus tube under a load of ca. 1 g and connected at the upper end with an FD pickup by means of silk thread to record its isometric tension change on a recorder.
Prior to initiating the experiment, the sample was allowed to stand for 60 to 90 minutes, during which the Krebs-Henseleit solution was replaced by a new one at an interval of 20 to 30 minutes. […] Finally, papaverine was additionally provided to regulate the final concentration to 2 x 10- ^5g/ml, thereby observing and recording what relaxing reaction took place.
The state stabilized by the addition of KCI or NE was defined as a 100% relaxation rate, on the basis of which what reaction took place at each concentration was relatively estimated.

A further test concerns poikilocytes. Put plainly: Ex-vivo amelioration of poikilocytes (filtration under pressure of erythrocyte suspension). The following applies: rat. It counts as in vivo. On the procedure: (§3) Five minutes after the test compound had been intravenously administered to the tail of a rat, blood was gathered from the descending aorta of the rat which was lightly etherized. Added to this blood was citric acid (3.8% sodium citrate) in a volume ratio of 1/10.
Blood gathered with the addition of citric acid was centrifuged at 4°C and 1500 rpm for 10 minutes. The supernatant fluid was discarded. Added to the residues was physiological saline in an amount of about 1.5 times as large, again followed by 10-minute centrifugation at 4°C and 1500 rpm. The supernatant fluid was discarded. One hundred (100) µl of erythrocytes left upon such procedures repeated twice were diluted with physiological saline to prepare 50 ml of a 0.2 % erythrocyte suspension. This suspension was incubated at 37°C for 5 minutes, cooled down to room temperature and examined to find how much the poikilocytes were ameliorated by the filtration-under-pressure procedures described by F. Katsuraya in "Geriatric Medicine", Vol. 20, pp. 151-156 (1982).
To this end, the suspension sample was passed from a continuous feeder through a Millipore membrane having a mean pore size of […] at a rate of 5 ml/min, during which the pressure on the upstream side of the membrane was measured through a pressure transducer with a pressure amplifier and, at the same time, was recorded on a polygraph chart sheet.

The next test has as its target aldose reductase (Rattus norvegicus, UniProt P07943). Put plainly: Action on aldose reductase inhibition (method of Kador et al.). In kind it is biochemical. The following applies: 50 % inhibition of aldose reductase. The text has this:
Chem.", Vol. 8, page 81 (1978) to detrermine how much they inhibited aldose reductase.
Note that IC50 is an index to the 50 % inhibition of aldose reductase.

The test system of test [4] is coronary artery bloodstream. Put plainly: Coronary bloodstream of dogs under anesthesia (i.v.). In kind it is in vivo. The following applies: anesthetized dogs, control 8.7±2.1. On the procedure: Fully developed, mongrel male and female dogs were each put under anesthesia with sodium pentobarbital and subjected to commissurotomy while artificial respiration was applied to them. The coronary artery bloodstream was determined with an electromagnetic bloodstream probe attached to the ramus circumflexus of the left coronary artery.
Each of the test compounds was administered to the animal through a cannula fixedly inserted into the cephalic vein.

The subject of another test is erythrocytes. Put plainly: Oxygen dissociation of erythrocytes (HEMOX-ANALYZER), ex vivo. It counts as in vivo, rat. The following applies: 10 mg/kg; control mean 31.08.
From the text: as §3
Blood gathered with the addition of heparin was used to determine the oxygen dissociation of the erthro- cytes with HEMOX-ANALYZER.

Where [5] appears, read: Rattus norvegicus, read-out: IC50 Collagen.
Setting [6] is: 10^-4(M), left atrium, suppression.
Setting [7] is: 10^-5(M), left atrium, suppression.
[8] abbreviates: 10^-4(M), right atrium, suppression.
The mark [9] stands for this setting: 10^-5(M), right atrium, suppression.
[10] abbreviates: 50% relaxation, contraction by KCl 2.5 x 10^-2M, read-out: IC50(M) Contraction by KCl.
Setting [11] is: 50% relaxation, contraction by norepinephrine 10^-6 g/ml, read-out: IC50(M) Contraction by NE.
The mark [12] stands for this setting: rat PRP, aggregation inducer collagen, read-out: IC50 Collagen.

Like-named read-outs stand apart in the source and are kept apart here. Marks after values point to notes of the source that are not given here.

As for `CC(=O)Oc1ccccc1C(=O)O` [Aspirin, reference compound], the “Collagen (10 μM)” value in the test with platelet aggregation [1] (30.0 mg/kg intravenously) was determined as 77%. Also, the half-inhibitory concentration (IC50) with platelet aggregation [2] (setting [5]) was found to be 210 µM.

`CC(C(O)c1ccc(O)cc1)N1CCC(Cc2ccccc2)CC1` (stereo not shown) [B, ifenprodil, reference compound]: the inhibition at 100 µM was 10 to 20% with left atrium (setting [6]) and above 20% in the test with right atrium (setting [8]). Also, the inhibition at 10 µM is 0% with left atrium (setting [7]) and above 20% in the test on right atrium (setting [9]).

Take `COc1cc(/C=C/C(=O)N2CCN(CC(=O)N3CCCC3)CC2)cc(OC)c1OC` [Cinepazid, reference compound]: the half-inhibitory concentration (IC50) in test [3] (read-out: IC50(M) Contraction by KCl) was 0.002 M; in test [3] (read-out: IC50(M) Contraction by NE) it was 0.001 M.

As to `O=C1NC(=O)[C@@]2(C[C@@H](C(=O)N3CCC(Cc4ccccc4)CC3)Oc3ccc(F)cc32)N1` [Compound 1], the inhibition at 100 µM with left atrium (setting [6]) is 10 to 20%; in the test with right atrium (setting [8]), 0%. For the same compound, the inhibition at 10 µM in the test with left atrium (setting [7]) and in the test on right atrium (setting [9]) was 0% each time. The compound further displayed an Amelioration in % in the test with poikilocytes (0.1 mg/kg intravenously) of 29.3%. In addition, the half-inhibitory concentration (IC50) at aldose reductase stood at 0.31 µM; in test [3] (setting [10]), 1.3e-06 M; in test [3] (setting [11]) it was 1e-05 M; in the test on platelet aggregation [2] (setting [12]) it was 630 µM. Also, the “ADP (1 x 10^-6M)” value with platelet aggregation [1] (1.0 mg/kg intravenously, inducer ADP 1 x 10^-6M) is 44* %. The “Collagen (10 μM)” value in the test with platelet aggregation [1] (1.0 mg/kg intravenously) was 57%. Also, in test [4] (0.1 mg/kg i.v.), the “C.B.S. (coronary bloodstream)” value was 9.6±6.9.

Turning to `O=C1NC(=O)[C@@]2(C[C@@H](C(=O)N3CCN(C(c4ccccc4)c4ccccc4)CC3)Oc3ccc(F)cc32)N1` [Compound 2, 4-diphenylmethyl-1-{(2S,4S)-6-fluoro-2,5'-dioxospiro[chromane-4,4'-imidazolidine]-2-carbonyl}piperazine], the inhibition at 100 µM in the test with left atrium (setting [6]) is 10 to 20%; in the test with right atrium (setting [8]), above 20%. For the same compound, the figures for the inhibition at 10 µM in the test with left atrium (setting [7]) and with right atrium (setting [9]) were 0% and 10 to 20%, respectively. In addition, in the test with erythrocytes, the “P50 in mmHg Mean” value was 32.58 mmHg. The Amelioration in % with poikilocytes (1.0 mg/kg intravenously) came to 37.9%. The half-inhibitory concentration (IC50) is 0.045 µM against aldose reductase; 0.00012 M in [3] (setting [10]); 1e-06 M in [3] (setting [11]); 770 µM in the test on platelet aggregation [2] (rat PRP, aggregation inducer ADP, read-out: IC50 ADP); 430 µM in the test with platelet aggregation [2] (setting [12]). In test [4] (1.0 mg/kg i.v.), the “C.B.S. (coronary bloodstream)” value turned out to be 13.8±2.9.

`O=C1NC(=O)[C@@]2(C[C@@H](C(=O)N3CCN(CC=Cc4ccccc4)CC3)Oc3ccc(F)cc32)N1` [Compound 3, 4-cinnamyl-1-{(2S,4S)-6-fluoro-2',5'-dioxospiro[chromane-4,4'-imidazolidine]-2-carbonyl}piperazine]: the inhibition at 100 µM in the test on left atrium (setting [6]) was 10 to 20%; with right atrium (setting [8]), above 20%. Moreover, the figures for the inhibition at 10 µM with left atrium (setting [7]) and in the test on right atrium (setting [9]) were 0% and 10 to 20%, respectively. Also, the half-inhibitory concentration (IC50) at aldose reductase is 0.41 µM; in test [3] (setting [10]), above 0.001 M; in [3] (setting [11]) it was above 0.001 M; with platelet aggregation [2] (setting [12]), 370 µM.

Regarding `CC(C)NCC(O)COc1cccc2ccccc12` (stereo not shown) [Control A, propranolol, reference compound], in the test on left atrium, the inhibition at 10 µM is above 20% and the inhibition at 100 µM was above 20%. Also, in the test on right atrium, the inhibition at 10 µM was above 20% and the inhibition at 100 µM is above 20%.

Take `COc1ccc2c(c1)c(CC(=O)O)c(C)n2C(=O)c1ccc(Cl)cc1` [Indomethacin, reference compound]: in the test with platelet aggregation [1] (30.0 mg/kg intravenously), the “Collagen (10 μM)” value was 49%. Moreover, the IC50 with platelet aggregation [2] (setting [5]) was 68 µM.

One may read the IC50 as the point on the concentration scale where inhibition reaches its midpoint.
